Assay results reported in patent US20230321253A1, “BIFUNCTIONAL COMPOUNDS AND PHARMACEUTICAL USES THEREOF” (RISEN (SUZHOU) PHARMA TECH CO., LTD., priority 2022, published 2023).

Molecular target: T1, KRAS-G12D protein (Homo sapiens, UniProt P01116, G12D)
T1 construct: host or cells: Aspc-1 cells
Test: KRAS-G12D protein degradation study in Aspc-1 cells (western blot)
Type: cell-based
Conditions: for inhibition at 0.1 µM: ASPC1, 24 h, read-out: Rate of protein degradation (KRAS^G12D); for inhibition at 0.1 µM / Rate of protein degradation (KRAS^G12D): Aspc-1 cells treated with 0.1 μM compound, 24 hours; for DC50: Aspc-1 cells, read-out: DC50 of test compound-induced KRAS^G12D protein degradation
Experimental: Aspc-1 (Cobioer, CBP60546) cells in exponential growth phase were inoculated on a 6-well cell culture plate (Corning, 3516) at density of 1E6/well; and cells in the plate were cultured in 37° C. incubator containing 5% carbon dioxide. The next day, test compounds were dissolved in DMSO (Sigma, RNBF5902) for the preparation of a 10 mM concentration stock solution. The stock solution was diluted with complete medium (RPMI-1640 supplemented with 10% fetal bovine serum, 1% penicillin-streptomycin), yielding working solutions of various concentrations. The plate, after the addition of compounds, was placed in a 5% carbon dioxide incubator, and incubated at 37° C. for 24 hours (final DMSO concentration was 0.1%). The plate was then removed from the incubator, and the cells were washed twice with precooled PBS (Gibco, 14190250), followed by addition of 80 μL RIPA lysis buffer (containing protease inhibitor (Invitrogen™, AM2696)) to each well. The adherent cells were scraped off with a cell scraper, and the cell lysate was transferred to a 1.5 mL centrifuge tube followed with a 30-minute incubation on ice. The lysate was then clarified with centrifugation at 14000 rpm for 10 min at 4° C. The supernatant was transferred into a new 1.5 mL centrifuge tube, and protein concentration was measured with BCA protein detection kit (Thermo Fisher, 23225). KRAS-G12D protein level was assessed by western blot.
A mixture of cell lysate (40 μL) and loading buffer (10 μL 5×SDS (Beyotime, P0015L)) was denatured in a water bath at 95° C. for 10 min. The denatured protein sample, at 30 μL/well, was loaded into the corresponding well of a 4-20% Bis-Tris gel (Kingsley, M00656). Protein samples were initially electrophoresed at 80 V for 30 minutes, followed by 120 V for 40 minutes, until the bromophenol blue strip ran to an appropriate position. After electrophoresis, iBlot2 (Life Technologies, IB21001) was used to transfer the separated samples onto PVDF film. The PVDF membrane was washed with double-distilled water and then blocked in TBST (Thermo Scientific, 28360) buffer containing 5% non-fat milk, for 2 hours. Blocked membrane was rinsed with tris-buffered saline tween-20 (Thermo Scientific, 28360, TBST) three times, 10 minutes each. Membrane was then incubated with 1:1000 diluted KRAS primary antibody (CST, cat #14429S) overnight at 4° C. Membrane was rinsed as described previously followed by 1 hour incubation of secondary antibody at room temperature. After washing the film three times with TBST, ECL color developing solution was applied, and image was captured with Biorad Chemi Doc gel imager. The band gray value was quantified (Image Lab), and protein degradation level was calculated according to the following formula:
Level of RAS protein expression=(RAS-compound/GAPDH)/(RAS-DMSO/GAPDH)
Level of degradation (%)=(1−Rate of RAS protein expression)×100
The symbols “−”, “+”, “++”, and “+++” indicate that the degradation level of KRAS^G12D protein induced by the test compounds was 10% or less, 11 to 30%, 31 to 60%, and greater than 60%, respectively.
Half-maximum degradation concentrations (DC50s) of exemplary test compounds were calculated using GraphPad Prism and their values are shown in Table 6. The symbols “++++”, “+++”, “++” and “+” indicate DC50 equal or less than 10 nM, 11-50 nM, 51-100 nM, and 101-200 nM, respectively.

T1 sequence (P01116 1-188 isoform P01116-2 G12D): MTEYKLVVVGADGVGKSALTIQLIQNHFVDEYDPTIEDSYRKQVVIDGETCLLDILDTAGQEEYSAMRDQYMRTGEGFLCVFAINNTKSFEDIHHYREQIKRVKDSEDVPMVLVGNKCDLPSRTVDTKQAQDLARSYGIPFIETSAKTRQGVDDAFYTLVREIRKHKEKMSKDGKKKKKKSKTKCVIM

SMILES | inhibition at 0.1 µM [%] | DC50 [µM] | Rate of protein degradation (KRAS^G12D)
CCc1c(F)ccc2cc(O)cc(-c3ncc4c(N5CC6CCC(C5)N6)nc(OCC5(CN6CCC7(CC6)CC(N6CCC(c8ccc9c(C%10CCC(=O)NC%10=O)nn(C)c9c8)CC6)C7)CC5)nc4c3F)c12 (centres unmarked) [Compound 81] | 31 to 60 | – | –
C#Cc1c(F)ccc2cc(O)cc(-c3ncc4c(N5CC6CCC(C5)N6)nc(O[C@H]5CCN(CCCCCCCCCC(=O)N[C@H](C(=O)N6C[C@H](O)C[C@H]6C(=O)N[C@@H](C)c6ccc(-c7scnc7C)cc6)C(C)(C)C)C5)nc4c3F)c12 [Compound 83] | 11 to 30 | 0.101 to 0.2 | –
C#Cc1c(F)ccc2cc(O)cc(-c3ncc4c(N5CC6CCC(C5)N6)nc(O[C@H]5CCN(CCCCCCCCCCCC(=O)N[C@H](C(=O)N6C[C@H](O)C[C@H]6C(=O)N[C@@H](C)c6ccc(-c7scnc7C)cc6)C(C)(C)C)C5)nc4c3F)c12 [Compound 84] | 31 to 60 | – | –
C#Cc1c(F)ccc2cc(O)cc(-c3ncc4c(N5CC6CCC(C5)N6)nc(O[C@H]5CCN(CCCCCCCCCCC(=O)N[C@H](C(=O)N6C[C@H](O)C[C@H]6C(=O)N[C@@H](C)c6ccc(-c7scnc7C)cc6)C(C)(C)C)C5)nc4c3F)c12 [Compound 85] | > 60 | – | –
C#Cc1c(F)ccc2cc(O)cc(-c3ncc4c(N5CC6CCC(C5)N6)nc(O[C@@H]5CCN(CCCCCCCCCCC(=O)N[C@H](C(=O)N6C[C@H](O)C[C@H]6C(=O)N[C@@H](C)c6ccc(-c7scnc7C)cc6)C(C)(C)C)C5)nc4c3F)c12 [Compound 86] | 31 to 60 | – | –
C#Cc1c(F)ccc2cc(O)cc(-c3ncc4c(N5CC6CCC(C5)N6)nc(O[C@@H]5CCN(CCCCCCCCCCCC(=O)N[C@H](C(=O)N6C[C@H](O)C[C@H]6C(=O)N[C@@H](C)c6ccc(-c7scnc7C)cc6)C(C)(C)C)C5)nc4c3F)c12 [Compound 87] | 31 to 60 | – | –
C#Cc1c(F)ccc2cc(O)cc(-c3ncc4c(N5CC6CCC(C5)N6)nc(O[C@@H]5CCN(CCCCCCCCCC(=O)N[C@H](C(=O)N6C[C@H](O)C[C@H]6C(=O)N[C@@H](C)c6ccc(-c7scnc7C)cc6)C(C)(C)C)C5)nc4c3F)c12 [Compound 88] | ≤ 10 | – | –
C#Cc1c(F)ccc2cc(O)cc(-c3ncc4c(N5CC6CCC(C5)N6)nc(OCC5C[C@@H](NC(=O)CCCCCCCCCCC(=O)N6CCC(c7ccc8c(C9CCC(=O)NC9=O)nn(C)c8c7)CC6)CN5C)nc4c3F)c12 (some centres unmarked) [Compound 89] | ≤ 10 | – | –
C#Cc1c(F)ccc2cc(O)cc(-c3ncc4c(N5CC6CCC(C5)N6)nc(OC[C@@H]5C[C@@H](NC(=O)CCCCCCCCCCC(=O)N[C@H](C(=O)N6C[C@H](O)C[C@H]6C(=O)N[C@@H](C)c6ccc(-c7scnc7C)cc6)C(C)(C)C)CN5C)nc4c3F)c12 [Compound 90] | ≤ 10 | – | –
C#Cc1c(F)ccc2cc(O)cc(-c3ncc4c(N5CC6CCC(C5)N6)nc(OC[C@@H]5C[C@@H](NC(=O)CCCCCCC(=O)N[C@H](C(=O)N6C[C@H](O)C[C@H]6C(=O)N[C@@H](C)c6ccc(-c7scnc7C)cc6)C(C)(C)C)CN5C)nc4c3F)c12 [Compound 91] | – | – | − (10% or less)
C#Cc1c(F)ccc2cc(O)cc(-c3ncc4c(N5CC6CCC(C5)N6)nc(OCC56CCCN5[C@@H](COC(=O)NCCCCCCCCCCC(=O)N[C@H](C(=O)N5C[C@H](O)C[C@H]5C(=O)N[C@@H](C)c5ccc(-c7scnc7C)cc5)C(C)(C)C)CC6)nc4c3F)c12 (some centres unmarked) [Compound 93] | > 60 | 0.051 to 0.1 | –
C#Cc1c(F)ccc2cc(O)cc(-c3ncc4c(N5CC6CCC(C5)N6)nc(OCC5CCN(CC(=O)N6CCC(c7ccc8c(C9CCC(=O)NC9=O)nn(C)c8c7)CC6)C5)nc4c3F)c12 (centres unmarked) [Compound 94] | 31 to 60 | – | –
C#Cc1c(F)ccc2cc(O)cc(-c3ncc4c(N5CC6CCC(C5)N6)nc(OC[C@@H]5C[C@@H](NC(=O)N6CCC(c7ccc8c(C9CCC(=O)NC9=O)nn(C)c8c7)CC6)CN5C)nc4c3F)c12 (some centres unmarked) [Compound 95] | 11 to 30 | – | –
C#Cc1c(F)ccc2cc(O)cc(-c3ncc4c(N5CC6CCC(C5)N6)nc(OCC56CCCN5[C@@H](COC(=O)N5CCC(c7ccc8c(C9CCC(=O)NC9=O)nn(C)c8c7)CC5)CC6)nc4c3F)c12 (some centres unmarked) [Compound 97] | 31 to 60 | – | –
C#Cc1c(F)ccc2cc(O)cc(-c3ncc4c(N5CC6CCC(C5)N6)nc(OCC56CCCN5[C@@H](COC(=O)NCCCCCCCCCC(=O)N[C@H](C(=O)N5C[C@H](O)C[C@H]5C(=O)N[C@@H](C)c5ccc(-c7scnc7C)cc5)C(C)(C)C)CC6)nc4c3F)c12 (some centres unmarked) [Compound 98] | 31 to 60 | – | –
C#Cc1c(F)ccc2cc(O)cc(-c3ncc4c(N5CC6CCC(C5)N6)nc(OCC5(CN6CCC(c7ccc8c(C9CCC(=O)NC9=O)nn(C)c8c7)CC6)CC5)nc4c3F)c12 (centres unmarked) [Compound 99] | – | 0.011 to 0.05 | +++ (greater than 60%)
C#Cc1c(F)ccc2cc(O)cc(-c3ncc4c(N5CC6CCC(C5)N6)nc(OC5CCN(CC(=O)N6CCC7(CC6)CC(N6CCC(c8ccc9c(C%10CCC(=O)NC%10=O)nn(C)c9c8)CC6)C7)C5)nc4c3F)c12 (centres unmarked) [Compound 101] | – | – | + (11 to 30%)
C#Cc1c(F)ccc2cc(O)cc(-c3ncc4c(N5CC6CCC(C5)N6)nc(OC5CCN(CCCCCCCCCCC(=O)N6CCN(C(=O)C[C@H](NC(=O)[C@@H]7C[C@@H](O)CN7C(=O)[C@@H](NC(=O)C7(F)CC7)C(C)(C)C)c7ccc(-c8scnc8C)cc7)CC6)CC5)nc4c3F)c12 [Compound 103] | ≤ 10 | – | –
C#Cc1c(F)ccc2cc(O)cc(-c3ncc4c(N5CC6CCC(C5)N6)nc(OCC5(CN6CCN(CCCCCCCCCCC(=O)N7CCN(C(=O)C[C@H](NC(=O)[C@@H]8C[C@@H](O)CN8C(=O)[C@@H](NC(=O)C8(F)CC8)C(C)(C)C)c8ccc(-c9scnc9C)cc8)CC7)CC6)CC5)nc4c3F)c12 [Compound 106] | 11 to 30 | – | –
C#Cc1c(F)ccc2cc(O)cc(-c3ncc4c(N5CC6CCC(C5)N6)nc(OCC5(CN6CCC(C(=O)N7CCN(c8ccc(NC9CCC(=O)NC9=O)cc8F)CC7)CC6)CC5)nc4c3F)c12 (centres unmarked) [Compound 107] | 11 to 30 | – | –
C#Cc1c(F)ccc2cc(O)cc(-c3ncc4c(N5CC6CCC(C5)N6)nc(OCC5(CN6CCN(C(=O)CN7CCN(c8ccc(NC9CCC(=O)NC9=O)cc8F)CC7)CC6)CC5)nc4c3F)c12 (centres unmarked) [Compound 108] | ≤ 10 | – | –
C#Cc1c(F)ccc2cc(O)cc(-c3ncc4c(N5CC6CCC(C5)N6)nc(OCC5(CN6CCN(CC7CCN(c8ccc(NC9CCC(=O)NC9=O)cc8F)CC7)CC6)CC5)nc4c3F)c12 (centres unmarked) [Compound 109] | 31 to 60 | – | –
C#Cc1c(F)ccc2cc(O)cc(-c3ncc4c(N5CC6CCC(C5)N6)nc(OCC5(CN6CCC7(CC6)CCN(c6ccc(NC8CCC(=O)NC8=O)cc6F)CC7)CC5)nc4c3F)c12 (centres unmarked) [Compound 110] | 31 to 60 | < 0.01 | –
C#Cc1c(F)ccc2cc(O)cc(-c3ncc4c(N5CC6CCC(C5)N6)nc(OCC5(CN6CCC(N7CCC(c8ccc9c(C%10CCC(=O)NC%10=O)nn(C)c9c8)CC7)CC6)CC5)nc4c3F)c12 (centres unmarked) [Compound 113] | > 60 | < 0.01 | –
C#Cc1c(F)ccc2cc(O)cc(-c3ncc4c(N5CC6CCC(C5)N6)nc(OC5CCN(CC(=O)N6CCC7(CC6)CC(N6CCC(c8ccc(NC9CCC(=O)NC9=O)cc8F)CC6)C7)CC5)nc4c3F)c12 (centres unmarked) [Compound 114] | > 60 | < 0.01 | –
C#Cc1c(F)ccc2cc(O)cc(-c3ncc4c(N5CC6CCC(C5)N6)nc(OCC5(CN6CCN(CC7CCN(c8ccc9c(c8)C(=O)N(C8CCC(=O)NC8=O)C9=O)CC7)CC6)CC5)nc4c3F)c12 (centres unmarked) [Compound 115] | 31 to 60 | 0.011 to 0.05 | –
C#Cc1c(F)ccc2cc(O)cc(-c3ncc4c(N5CC6CCC(C5)N6)nc(OCC5(CN6CCN(C(=O)CN7CCN(c8ccc9c(c8)C(=O)N(C8CCC(=O)NC8=O)C9=O)CC7)CC6)CC5)nc4c3F)c12 (centres unmarked) [Compound 116] | 31 to 60 | – | –
C#Cc1c(F)ccc2cc(O)cc(-c3ncc4c(N5CC6CCC(C5)N6)nc(OCC5(CN6CCN(c7ccc8c(c7)C(=O)N(C7CCC(=O)NC7=O)C8=O)CC6)CC5)nc4c3F)c12 (centres unmarked) [Compound 117] | > 60 | – | –
